Source: BindingDB's records for doi:10.1021/jm00036a015 (University of Minnesota, 1994)

assay: The binding affinity on delta-opioid receptor using [3H]- DPDPE as radioligand

Row | SMILES | Ki
1 | CCCCN1CC[C@]23c4c5ccc(O)c4O[C@H]2c2[nH]c4c(c2C[C@@]3(O)[C@H]1C5)C[C@@]1(O)[C@H]2Cc3ccc(O)c5c3[C@@]1(CCN2CC1CC1)[C@H]4O5 [17-(cyclopropylmethyl)-17'-butyl-6,6',7,7'-tetradehydro-4,5:4',5'-diepoxy-6,6'-imino-7,7'-bimorphinan-3,3',14,14'-tetrol] | 15 nM
2 | NCCN1CC[C@]23c4c5ccc(O)c4O[C@H]2c2[nH]c4c(c2C[C@@]3(O)[C@H]1C5)C[C@@]1(O)[C@H]2Cc3ccc(O)c5c3[C@@]1(CCN2CC1CC1)[C@H]4O5 [17-(cyclopropylmethyl)-17'-aminoethyl-6,6',7,7'-tetradehydro-4,5:4',5'-diepoxy-6,6'-imino-7,7'-bimorphinan-3,3',14,14'-tetrol] | 137 nM
3 | N=C(N)NCCN1CC[C@]23c4c5ccc(O)c4O[C@H]2c2[nH]c4c(c2C[C@@]3(O)[C@H]1C5)C[C@@]1(O)[C@H]2Cc3ccc(O)c5c3C1(CCN2CC1CC1)[C@H]4O5 [17-(cyclopropylmethyl)-17'-(2-guanidinoethyl-6,6',7,7'-tetradehydro-4,5:4',5'-diepoxy-6,6'-imino-7,7'-bimorphinan-3,3',14,14'-tetrol] | 37 nM
